Data set [1] has as its system human breast cancer cell lines. Put plainly: 4-day or 6-day cancer cell line growth assay screens (CellTiter-Glo, NCA). The format is cell-based. On the procedure:
(§1) An analysis was carried out to identify cancer cell lines sensitivity profile to the KIF18A inhibitor Compound C9. In this analysis, a panel of different human breast and ovarian cancer cell lines (Table 2 of FIG. 4A and Table 3 of FIG. 4B), were used in either a 4-day or 6-day cancer cell line growth assay screen.
(§2) In the 4-day growth assay screen, cancer cell lines were treated in 96-well tissue culture plates at pre-optimized seeding density. Growth media conditions were determined by ChemPartners (Shanghai, China). After 24 hours, cells were treated with KIF18A inhibitor (Compound C9; final 10-point concentration range 2.0 μM to 0.0001 μM, 3-fold dilution) in a 4-day cell growth assay based on quantitation of ATP as an indicator of viable cells using CellTiter-GLO 2.0 readout (CTG, Promega). CTG assay was performed in duplicate for each cell line. Detection was performed using luminescence plate reader and expressed as relative luminescence units (RLU) based on POC (percentage of DMSO control). Raw data was provided to Amgen for curve-fitting analysis with 4-parameter equation (variable slope) using GraphPad Prism software (V7.0.4). […]
(§3) An expanded screen was performed using 6-day growth assay, cancer cell lines were treated in black 384-well tissue culture plates at 500-1500 cells per well. Growth media conditions were determined by Horizon Discovery (Cambridge, United Kingdom). After 24 hours, cells were treated with KIF18A inhibitor (Compound C9; final 11-point concentration range 2.0 μM to 0.0000339 μM, 3-fold dilution) in a 6-day cell growth assay based on quantitation of ATP as an indicator of viable cells using CellTiter-GLO 2.0 readout (Promega). Luminescence was detected using Envision plate reader (Perkin Elmer) and expressed as relative luminescence units (RLU) based on POC (percentage of control). […]
(§4) In Tables 2 and 3, “?” means that there were differences in sensitivity calls between the first screen and the second screen, and “ND” means not determined. […]

Data set [2] deals with human ovarian cancer cell lines. Described as above. The format is cell-based. Conditions: nine TP53 wild-type ovarian cancer cell lines. On the procedure:
as §1, §2, §3, §4

Data set [3] is described as follows: Tolerability (body weight, blood counts) in tumor-bearing nude mice. The format is in vivo, mouse. The conditions noted are these: 18 days. Here is the method: (§5) Female athymic nude mice were injected with 5×10^6 cells in 0.1 mL subcutaneously in the right flank. After tumors were established (average tumor volume of 150 mm^3), animals were randomized into 4 treatment groups (vehicle alone, KIF18A inhibitor at 10, 30, or 100 mg/kg) with 10 animals per group and treated orally once per day (PO, QD) starting on day 25 post-tumor implantation. Tumor measurement was calculated from the length, width and height of tumors measured with a PRO-MAX electronic digital caliper (Japan Micrometer Mfg. Co. LTD). The tumor volume was calculated as [L×W×H] and expressed in mm^3. Tumor volume and animal body weight measurements were determined twice per week (study start day 25, study end day 45). A single mouse was removed from the study (KIF18A inhibitor 30 mg/kg group) due to abdominal distention, a finding likely unrelated to compound.
(§6) Data was plotted using GraphPad Prism software (V7.0.4), tumor volume and body weight data are expressed as means plus or minus standard error of the mean and plotted as a function of time. Statistical significance of observed differences between growth curves were calculated using SLACR package (v.1.0.3). Statistical significance for tumor regressions were performed by paired Student's t-Test on the initial and final tumor volumes with significant tumor regression p-values (***p≤0.0001) for all three KIF18A inhibitor treatment groups. KIF18A inhibitor dose 10 mg/kg (81% regression, 5 of 10 tumor-free), 30 mg/kg (98% regression, 8 of 9 tumor-free), and 100 mg/kg (97% regression, 7 of 10 tumor-free).
Female athymic nude mice were injected with 5×10^6 OVCAR-8 cells in 0.1 mL subcutaneously in the right flank. […] Tumor volume and animal body weight measurements were determined twice per week (study start day 25, study end day 47). Tumor measurements, formulas, and regression analysis as described above for FIGS. 5A-5B. Data was plotted using GraphPad Prism software (V7.0.4), tumor volume and body weight data are expressed as means plus or minus standard error of the mean and plotted as a function of time. Statistical significance of observed differences between growth curves were calculated using SLACR package (v.1.0.3).
Data was graphed using GraphPad Prism 7.05.
Tumor volume and body weight assessment performed as described above. After the final dose on day 36, plasma pharmacokinetic analysis was performed as described above. All data analysis was performed as described above.
Animals were dosed IP daily with vehicle alone, C9 (50 or 100 mg/kg), or C12 (25 or 50 mg/kg). […] Tumor volume and body weight assessment performed as described above. After the final dose on day 46, plasma pharmacokinetic analysis was performed as described above except blood was drawn by retro-orbital bleed method.

The subject of data set [4] is human OVCAR-3 HGSOC xenograft model (TP53MUT, CCNE1AMP). Briefly: OVCAR-3 xenograft efficacy study, oral dosing (Example 3). The format is in vivo, mouse. Conditions: for tumor regression: day 25 to day 45. On the procedure: as §5
Tumor Growth Inhibition (TGI) and Tumor Regression formulas.
as §6

[5] abbreviates: OVCAR-3 study, C9 100 mg/kg, C12 25 mg/kg IP daily.

Regarding `CC(C)(C)NS(=O)(=O)c1cccc(NC(=O)c2ccc(S(=O)(=O)NC(C)(C)C)cc2N2CCC3(CC2)CC3)c1` [Compound C9, 4-(N-(tert-butyl)sulfamoyl)-N-(3-(N-(tert-butyl)sulfamoyl)phenyl)-2-(6-azaspiro[2.5]octan-6-yl)benzamide], the “sensitivity to KIF18A inhibitor” value in data set [1] (luminal A or luminal B breast cancer cell lines) is reported as “None of the luminal A or luminal B breast cancer cell lines were sensitive”; in data set [1] (nine TP53 wild-type breast cancer cell lines incl. CAL-51, DU4475), “None of the nine TP53 wild-type breast cancer cell lines were sensitive”; in data set [2], “None of the nine TP53 wild-type ovarian cancer cell lines were sensitive”. Moreover, the “tolerability (body weight)” value in data set [3] (CAL-51 study, C9 100 mg/kg, C12 25 mg/kg IP daily) is recorded as “well-tolerated”; in data set [3] (OVCAR-8 study, C9 50 or 100 mg/kg, C12 25 or 50 mg/kg IP daily), “well-tolerated”. The “body weight loss or changes in blood counts” value in data set [3] (setting [5]) is “no evidence of body weight loss or changes in blood counts”. For the same compound, in data set [3] (setting [5]), the tolerability entry is recorded as “well-tolerated”.

Take `Cc1cc(NC(=O)c2ccc(NS(=O)(=O)CCO)cc2N2CCC3(CC2)CC3)nc(N2CCC(F)(F)CC2)n1` [Compound C14, N-(2-(4,4-Difluoropiperidin-1-yl)-6-methylpyrimidin-4-yl)-4-((2-hydroxyethyl)sulfonamido)-2-(6-azaspiro[2.5]octan-6-yl)benzamide]: the results for the tumor-free animals in data set [4] (10 mg/kg PO QD), in data set [4] (30 mg/kg PO QD) and in data set [4] (100 mg/kg PO QD) were 5 of 10, 8 of 9 and 7 of 10, respectively. The tumor regression in data set [4] (10 mg/kg PO QD) amounted to 81%; in data set [4] (30 mg/kg PO QD) it was 98%; in data set [4] (100 mg/kg PO QD), 97%. In data set [4] (tumor re-growth assessment after cessation of treatment), the “durable tumor regressions and cures, share of the animals” value was ≥ 50%.

These data come from US20230151432A1, “KIF18A INHIBITORS FOR TREATMENT OF NEOPLASTIC DISEASES” (AMGEN INC., priority 2020, published 2023).
